The values below are quoted from earlier work in patent US20140171495A1, “STABLE PHARMACEUTICAL FORMULATION OF CABAZITAXEL” (Yung Shin Pharm.Ind. Co., Ltd., priority 2012, published 2014).

Turning to `CO[C@H]1C(=O)[C@]2(C)[C@@H](OC)C[C@H]3OC[C@@]3(OC(C)=O)[C@H]2[C@H](OC(=O)c2ccccc2)[C@]2(O)C[C@H](OC(=O)[C@H](O)[C@@H](NC(=O)OC(C)(C)C)c3ccccc3)C(C)=C1C2(C)C` [Cabazitaxel, (2α,5β,7β,10β,13α)-4-acetoxy-13-({(2R,3S)-3[(tertbutoxycarbonyl)amino]-2-hydroxy-3-phenylpropanoyl}oxy)-1-hydroxy-7,10-dimethoxy-9-oxo-5,20-epoxytax-11-en-2-yl benzoate-propan-2-one(1:1)], the solubility in alcohol entry (alcohol) is given as “soluble”. Further, for the setting “water”, the solubility in water entry was “practically insoluble”.
